Common to all, as to assay type: in vivo
One data set concerns soybean plant. Briefly: Evaluation Example 6: tolerance to drying stress, leaf mortality. Conditions: for Leaf mortality rate / Environmental stress suppressing rate: drying stress Yes; for Leaf mortality rate: 7 days after stoppage of water. On the procedure:
EGT and GB were commercially available products, and pure water was used as a solvent. In a 60 mm square plastic pot having a height of 66 mm, 150 ml of granular soil (Kumiai horticultural soil) was placed, and one individual soybean plant was seeded per pot. They were managed in a greenhouse set at room temperature of 25° C. EGT in an amount of 50 mL or GB in an amount of 50 mL was added on the 23rd day after seeding, and drying stress was applied by stopping water supply for 7 days after the addition of EGT or GB. Dead leaves were counted 7 days after the stoppage of water, and the leaf mortality rate was evaluated as an index of physiological disorder. The leaf mortality rate and the environmental stress suppressing rate were calculated according to the following formulas. [formula] [formula]

The subject of data set [1] is Arabidopsis thaliana (Col-0). As to the kind of experiment: Evaluation Example 4: tolerance to high temperature stress, plant mortality. The settings on record: for Environmental stress suppressing rate: high temperature stress Yes. The procedure: EGT (Example 5 and Comparative Example 13) or GB (Comparative Example 12 and Comparative Example 14) was prepared so as to have a concentration shown in Table 4 below. EGT and GB were commercially available products, and pure water was used as a solvent.
In a plastic pot having a diameter of 60 mm and a height of 55 mm, 80 mL of culture soil (manufactured by Hanagokoro Co., Ltd.) was put, and one individual Arabidopsis thaliana (Col-0) was seeded per pot. Plastic deep dishes each having a diameter of 160 mm and a height of 28 mm were prepared, and four pots were respectively placed therein.
They were located in a growth chamber set at room temperature of 22° C., and the light period was 16 hours and the dark period was 8 hours. The light conditions were set such that the light intensity was 5000 lx in the central part under irradiation with the fluorescent lamp. Water supply was conducted from the bottom, and the water level was set at about 5 mm. On the 41st day after seeding, 50 mL of EGT or 50 mL of GB was added, and one day after that, high temperature stress was applied by exposure to an environment of 42° C. for 3 hours.
The surviving plants were counted 12 days after the high temperature stress was applied, and the plant mortality rate was evaluated as an index of physiological disorder. The mortality rate and the environmental stress suppressing rate were calculated according to the following formulas.

The next data set concerns cotton. As to the kind of experiment: Evaluation Example 3: tolerance to drying stress, leaf necrotizing. The settings on record: for Leaf necrotizing rate: test compound 0.1 mM (50 mL), 4 days after stoppage of water; for Leaf necrotizing rate / Environmental stress suppressing rate: drying stress Yes; for Environmental stress suppressing rate: test compound 0.1 mM. The procedure: EGT and GB were commercially available products, and pure water was used as a solvent.
In a plastic pot having a diameter of 60 mm and a height of 55 mm, 90 mL of granular soil (Kumiai horticultural soil) was placed, and one individual cotton (manufactured by TOHOKU SEED CO., LTD.) was seeded per pot.
They were managed in a greenhouse set at room temperature of 25° C. EGT in an amount of 50 mL or GB in an amount of 50 mL was added on the 23rd day after seeding, and drying stress was applied by stopping water supply for 4 days after 4 days from the addition of EGT or GB.
The leaves were collected 4 days after the stoppage of water and photographed with a digital camera. The photographed pictures of the leaves were analyzed with image analysis software WinROOF (manufactured by MITANI Corporation) to quantify the total leaf area and the green leaf area.
Using the above-described total leaf area and green leaf area, the leaf necrotizing rate after 4 days from the stoppage of water was evaluated. The leaf necrotizing rate and the environmental stress suppressing rate were calculated according to the following formulas.

Another data set deals with radish (Akamaru Hatsuka). Briefly: Evaluation Example 7: tolerance to drying stress, leaf mortality. The settings on record: for Leaf mortality rate: test compound 0.5 mM (50 mL), water supply stopped 7 days twice; for Leaf mortality rate / Environmental stress suppressing rate: drying stress Yes; for Environmental stress suppressing rate: test compound 0.5 mM. On the procedure: EGT and GB were commercially available products, and pure water was used as a solvent. In a plastic pot having a diameter of 135 mm and a height of 110 mm, 1 kg of granular soil (Kumiai horticultural soil) was placed, and 5 individual radish (Akamaru Hatsuka) was seeded per pot. They were managed in a greenhouse set at room temperature of 25° C. EGT in an amount of 50 mL or GB in an amount of 50 mL was added on the 22nd day after seeding, and water supply was stopped for 7 days. After cultivation under water supply for 7 days, drying stress was applied by stopping water supply for 7 days again. The dead leaves of radish were counted after the drying stress was applied, and the leaf mortality rate was evaluated as an index of physiological disorder. The leaf mortality rate and the environmental stress suppressing rate were calculated according to the following formulas. [formula] [formula]

Another data set has as its system wheat. Briefly: Evaluation Example 10: tolerance to ultraviolet stress, leaf mortality. The settings on record: for Environmental stress suppressing rate: ultraviolet stress Yes. On the procedure:
EGT (Examples 12 and 13, Comparative Examples 37 and 38) or GB (Comparative Examples 35, 36, 39, and 40) was prepared so as to have a concentration shown in Table 10 below. EGT and GB were commercially available products, and pure water was used as a solvent.
5 mL of pure water was added to 9-cm petri dishes on which filter paper was placed, and 10 wheat seeds were seeded per petri dish. They were located in a growth chamber set at room temperature of 22° C., and the light period was 16 hours and the dark period was 8 hours. The light conditions were set such that the light intensity was 5000 lx in the central part under irradiation with the fluorescent lamp.
On the 7th day after seeding, pure water in the petri dish was removed, 5 mL of EGT or 5 mL of GB was added to the petri dish, and one day after that, ultraviolet stress was applied by exposure for one hour under irradiation with an ultraviolet lamp (GL-15, manufactured by Toshiba Corporation) with the intensity of ultraviolet radiation of a wavelength of 254 nm set to 550 μW/cm^−2.
The dead leaves were counted 6 days after the ultraviolet stress was applied, and the leaf mortality rate was evaluated as an index of physiological disorder. The leaf mortality rate and the environmental stress suppressing rate were calculated according to the following formulas.

The mark [2] stands for this setting: test compound 0.5 mM (50 mL), high temperature stress Yes (42° C. for 3 hours), 12 days after stress.
[3] abbreviates: test compound 0.5 mM, high temperature stress No.
The mark [4] stands for this setting: test compound 0.1 mM (5 mL), ultraviolet stress Yes (254 nm, one hour), 6 days after stress.
The mark [5] stands for this setting: test compound 0.1 mM, ultraviolet stress No.
[6] abbreviates: test compound 1 mM (5 mL), ultraviolet stress Yes (254 nm, one hour), 6 days after stress.
Where [7] appears, read: test compound 1 mM, ultraviolet stress No.

Regarding `C[N+](C)(C)[C@@H](Cc1c[nH]c(=S)[nH]1)C(=O)[O-]` [EGT, L-(+)-ergothioneine], the Leaf mortality rate is 55% in the data set on soybean plant (test compound 0.1 mM (50 mL)); 38% in the data set on soybean plant (test compound 1 mM (50 mL)); 17% in the data set with radish (Akamaru Hatsuka); 34% in the data set on wheat (setting [4]); 1% with wheat (setting [5]); 23% with wheat (setting [6]). This compound also returned a Leaf mortality rate in the data set with wheat (setting [7]) of 0%. The “Environmental stress suppressing rate” value in the data set with soybean plant (test compound 0.1 mM) stood at 11%; with soybean plant (test compound 1 mM), 39%; in data set [1] (test compound 0.5 mM), 67%; in the data set on cotton it was 50%; with radish (Akamaru Hatsuka), 71%; in the data set with wheat (test compound 0.1 mM) it was 36%. Also, the “Environmental stress suppressing rate” value with wheat (test compound 1 mM) is on record as 57%. Further, the Mortality rate in data set [1] (setting [2]) was 25%; in data set [1] (setting [3]), 0%. The same compound gave a Leaf necrotizing rate in the data set with cotton of 26%.
On to `C[N+](C)(C)CC(=O)[O-]` [GB, glycine betaine, reference compound], for which the “mortality rate due to drying stress, result in words” value with soybean plant (GB 1 mM and 0.1 mM, drying stress) is recorded as “not suppressed”; with radish (Akamaru Hatsuka) (0.5 mM, drying stress), “not suppressed”. The Leaf mortality rate in the data set with soybean plant (test compound 0.1 mM (50 mL)) was determined as 71%; in the data set on soybean plant (test compound 1 mM (50 mL)), 62%; with radish (Akamaru Hatsuka), 73%; in the data set on wheat (setting [4]) it was 50%; in the data set on wheat (setting [5]) it was 5%; with wheat (setting [6]) it was 44%. The Leaf mortality rate with wheat (setting [7]) was determined as 0%. The “Environmental stress suppressing rate” value in the data set with soybean plant (test compound 0.1 mM) was 0%; in the data set on soybean plant (test compound 1 mM) it was 0%; in data set [1] (test compound 0.5 mM) it was 0%; in the data set with cotton, 0%; in the data set on radish (Akamaru Hatsuka) it was 0%; in the data set with wheat (test compound 0.1 mM), 6%. In addition, the “Environmental stress suppressing rate” value with wheat (test compound 1 mM) is on record as 17%. Further, the “mortality rate due to high temperature stress, result in words” value in data set [1] (0.5 mM, high temperature stress) is reported as “not suppressed”. Moreover, the Mortality rate in data set [1] (setting [2]) is reported as 75%; in data set [1] (setting [3]) it was 0%. The “necrotizing due to drying stress, result in words” value in the data set with cotton (0.1 mM, drying stress) is “not suppressed”. In the data set with cotton, this compound had a Leaf necrotizing rate of 68%. Moreover, the “mortality rate due to ultraviolet stress, result in words” value in the data set on wheat (GB 1 mM and 0.1 mM, ultraviolet stress) was “hardly suppressed”.

The values above are taken from US20260101897A1, “PLANT ENVIRONMENTAL STRESS TOLERANCE IMPROVEMENT AGENT AND ENVIRONMENTAL STRESS TOLERANCE IMPROVEMENT METHOD” (priority 2022, published 2026).
